Drawing on ChEMBL document CHEMBL1131643, “Synthesis and 5 alpha-reductase inhibitory activities of benzofuran derivatives with a carbamoyl group” (Bioorg Med Chem Lett, 1998), this text covers IC50 for seven compounds.

In test [1] the target is T1, 3-oxo-5-alpha-steroid 4-dehydrogenase 2 (Homo sapiens, UniProt P31213).
T1 sequence (P31213 whole entry): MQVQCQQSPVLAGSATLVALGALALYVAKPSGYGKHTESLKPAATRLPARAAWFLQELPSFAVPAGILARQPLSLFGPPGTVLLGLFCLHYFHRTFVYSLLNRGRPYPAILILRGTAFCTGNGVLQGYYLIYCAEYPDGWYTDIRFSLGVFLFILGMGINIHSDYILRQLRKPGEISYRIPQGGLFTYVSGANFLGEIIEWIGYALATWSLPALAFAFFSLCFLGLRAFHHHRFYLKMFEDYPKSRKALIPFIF
Description: In vitro inhibitory activity against human Steroid 5-alpha-reductase type 2 in COS-1 cells was determined. It counts as cell-based.

The target in test [2] is T2, Steroid 5-alpha-reductase (Rattus norvegicus, UniProt P24008+P31214).
T2 sequence (P24008 whole entry): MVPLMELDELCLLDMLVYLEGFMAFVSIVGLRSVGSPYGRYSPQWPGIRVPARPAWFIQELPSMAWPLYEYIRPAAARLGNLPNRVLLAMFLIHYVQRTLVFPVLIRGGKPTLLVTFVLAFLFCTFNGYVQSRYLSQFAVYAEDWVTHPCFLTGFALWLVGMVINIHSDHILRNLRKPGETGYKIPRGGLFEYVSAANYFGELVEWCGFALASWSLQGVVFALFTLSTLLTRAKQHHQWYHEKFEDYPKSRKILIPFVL
T2 sequence (P31214 whole entry): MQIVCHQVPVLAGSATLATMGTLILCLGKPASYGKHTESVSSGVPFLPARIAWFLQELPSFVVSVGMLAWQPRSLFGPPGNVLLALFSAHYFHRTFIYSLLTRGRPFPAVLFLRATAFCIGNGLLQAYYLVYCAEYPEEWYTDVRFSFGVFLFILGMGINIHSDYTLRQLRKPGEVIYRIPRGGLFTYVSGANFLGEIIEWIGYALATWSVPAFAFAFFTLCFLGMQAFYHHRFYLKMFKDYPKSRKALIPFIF
Put plainly: In vitro inhibitory activity against rat testosterone 5 alpha reductase was determined. It counts as protein assay.

The target of test [3] is T3, 3-oxo-5-alpha-steroid 4-dehydrogenase 1 (Homo sapiens, UniProt P18405).
T3 sequence (P18405 whole entry): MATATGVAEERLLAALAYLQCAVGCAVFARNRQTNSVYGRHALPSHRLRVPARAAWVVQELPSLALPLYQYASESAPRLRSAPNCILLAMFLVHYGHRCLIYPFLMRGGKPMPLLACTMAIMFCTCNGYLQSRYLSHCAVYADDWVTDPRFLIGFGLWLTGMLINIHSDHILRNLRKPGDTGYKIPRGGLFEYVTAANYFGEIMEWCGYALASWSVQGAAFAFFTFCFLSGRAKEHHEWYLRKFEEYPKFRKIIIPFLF
Put plainly: In vitro inhibitory activity against human Steroid 5-alpha-reductase type 1 in COS-1 cells was determined. It counts as cell-based.

Where only a bound is given, the exact number is not on record here.

In general, IC50 refers to the point on the concentration scale where inhibition reaches its midpoint. A higher IC50 goes with weaker potency in that assay. With `O=C(O)CCCOc1ccccc1-c1cc2ccc(C(=O)NC(c3ccccc3)c3ccccc3)cc2o1`, the results for the IC50 in test [1], in test [2] and in test [3] were 270 nM, 28.5 nM and 62 nM, respectively.

As to `O=C(O)CCCOc1ccccc1-c1cc2ccc(C(=O)NC(c3ccc(F)cc3)c3ccc(F)cc3)cc2o1`, the half-maximal inhibitory concentration (IC50) in test [1] worked out at 340 nM; in test [2], 37.9 nM; in test [3], 50 nM.

On to `COc1ccc(C(NC(=O)c2ccc3cc(-c4ccccc4OCCCC(=O)O)oc3c2)c2ccc(OC)cc2)cc1`, for which the IC50 worked out at 930 nM in test [1], 35.5 nM in test [2] and 130 nM in test [3].

As to `O=C(O)CCCOc1ccccc1-c1cc2cc(C(=O)NC(c3ccccc3)c3ccccc3)ccc2o1`, the results for the IC50 in test [1], in test [2] and in test [3] were > 100000 nM, 155 nM and 310 nM, respectively.

As to `CC(C)Cc1ccc(C(Nc2cccc(C(=O)c3cn(CCCC(=O)O)c4ccccc34)c2)c2ccc(CC(C)C)cc2)cc1`, the IC50 in test [1] was found to be 11 nM; in test [2], 118 nM; in test [3] it was 3 nM.

Regarding `COc1ccc(C(NC(=O)c2ccc3oc(-c4ccccc4OCCCC(=O)O)cc3c2)c2ccc(OC)cc2)cc1`, in test [2], the IC50 stood at 26.3 nM.

`O=C(O)CCCOc1ccccc1-c1cc2cc(C(=O)NC(c3ccc(F)cc3)c3ccc(F)cc3)ccc2o1` yielded a 50% inhibitory concentration (IC50) in test [2] of 279 nM.
